The values that follow come from ChEMBL document CHEMBL1201862, “PubChem BioAssay data set” (2004).

Some test systems named below: A549; CAKI-1; CCRF-CEM; COLO 205; KM12; NCI-H460; OVCAR-3; OVCAR-5; RPMI-8226; SF-539; SK-MEL-28; SK-MEL-2; SK-MEL-5; TK-10; UACC-257; UO-31; DU-145; NCI/ADR-RES; Hs-578T.
Assay in all cases: NCI tumour cell line growth inhibition, 48 h

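How tested: cells in 96-well plates exposed to compound for 48 hours at five concentrations. Here, GI50 denotes the concentration required for 50% inhibition of growth.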 The source made the active and inactive calls. Cut-off read from the data, not from the text of the source: active = GI50 up to about 1.1 µM and inactive = higher.

For `CC[P+](C)(C)c1ccccc1`, the GI50 in the assay on A549, in the assay with CAKI-1, in the assay on CCRF-CEM, with COLO 205, with KM12 and in the assay with NCI-H460 was > 100 µM (inactive) throughout. Further, the GI50 in the assay on OVCAR-3, in the assay on OVCAR-5, in the assay on RPMI-8226, in the assay with SF-539, in the assay on SK-MEL-28 and with SK-MEL-2 was > 100 µM (inactive) each time. The GI50 in the assay on SK-MEL-5, with TK-10, in the assay on UACC-257 and with UO-31 was > 100 µM (inactive) in each case.

In the case of `CC(C)(Oc1ccc2c(=O)cc(-c3ccc(Cl)cc3)oc2c1)C(=O)Nc1c(Cl)cccc1Cl`, the GI50 in the assay on A549, with CAKI-1, with CCRF-CEM, in the assay on KM12, in the assay on NCI-H460 and in the assay with OVCAR-3 was > 100 µM (inactive) throughout. Further, the GI50 with OVCAR-5 is > 100 µM (inactive); with RPMI-8226, > 100 µM (inactive); in the assay on SF-539 it was > 100 µM (inactive); with SK-MEL-28, > 100 µM (inactive); in the assay on SK-MEL-2, > 100 µM (inactive); in the assay with SK-MEL-5, 96.6 µM (inactive). For the same compound, the GI50 was > 100 µM (inactive) in the assay with TK-10, > 100 µM (inactive) in the assay on UACC-257 and 25 µM (inactive) in the assay with UO-31.

With `CCC12CCCN(Cc3ccccc3)C1c1c(n(C)c3ccccc13)CC2` (centres undefined), the GI50 with A549 was > 25.3 µM (inactive); in the assay on CAKI-1, > 253 µM (inactive); in the assay with CCRF-CEM, 168 µM (inactive); in the assay on COLO 205, 164 µM (inactive); in the assay with KM12 it was 86.1 µM (inactive); in the assay on NCI-H460, > 253 µM (inactive). The GI50 in the assay on OVCAR-3 is 60.8 µM (inactive); in the assay on RPMI-8226, 92.7 µM (inactive); with SF-539, > 253 µM (inactive); with SK-MEL-28 it was > 253 µM (inactive); in the assay with SK-MEL-2, > 253 µM (inactive); in the assay on SK-MEL-5 it was 69.3 µM (inactive). Also, the GI50 in the assay on TK-10 is > 253 µM (inactive); with UACC-257 it was 107 µM (inactive).

Regarding `CC(C)CC(NC(=O)C(CCI)Cc1ccccc1)C(=O)Nc1ccccc1` (centres undefined), the GI50 was 80.9 µM (inactive) in the assay on A549; > 100 µM (inactive) in the assay with CAKI-1; 30.1 µM (inactive) in the assay with CCRF-CEM; 95.9 µM (inactive) in the assay on COLO 205; > 100 µM (inactive) with DU-145; 37.5 µM (inactive) in the assay with KM12. For the same compound, the GI50 with NCI-H460 was 80.2 µM (inactive); in the assay with NCI/ADR-RES, 19 µM (inactive); with OVCAR-3 it was > 100 µM (inactive); in the assay with OVCAR-5, > 100 µM (inactive); in the assay with RPMI-8226 it was 36.9 µM (inactive); in the assay on SF-539 it was > 100 µM (inactive). In addition, the GI50 with SK-MEL-28 was > 100 µM (inactive); with SK-MEL-2, > 100 µM (inactive); in the assay with SK-MEL-5, 55.3 µM (inactive); with TK-10 it was 88.7 µM (inactive); with UACC-257 it was > 100 µM (inactive); in the assay on UO-31, 22.1 µM (inactive).

Take `CCCCCCCCCCCCCCCCCc1nc(C#N)c(N)o1`: the GI50 with A549 was > 100 µM (inactive); with CAKI-1, 19.9 µM (inactive); in the assay on CCRF-CEM, 2.28 µM (inactive); in the assay on DU-145 it was > 100 µM (inactive); in the assay with Hs-578T it was 20.8 µM (inactive); in the assay on KM12, 23.5 µM (inactive). Also, the GI50 with OVCAR-5 is 73.1 µM (inactive); in the assay on RPMI-8226 it was 5.27 µM (inactive); with SK-MEL-28, > 100 µM (inactive); in the assay on SK-MEL-2, > 100 µM (inactive); with SK-MEL-5, > 100 µM (inactive); in the assay with TK-10, > 100 µM (inactive). In addition, the GI50 with UACC-257 was > 100 µM (inactive).

In the case of `COc1cc([C@@H]2c3cc4c(cc3[C@@H](NCc3ccccc3)C3COC(=O)[C@@H]32)OCO4)cc(OC)c1O` (some centres undefined), the GI50 in the assay on A549 was 1.41 µM (inactive); in the assay on CAKI-1 it was 2.24 µM (inactive); in the assay with CCRF-CEM, 3.13 µM (inactive); with COLO 205 it was 27.2 µM (inactive); in the assay on KM12, 12.8 µM (inactive); in the assay on NCI-H460, 0.547 µM (active). Moreover, the GI50 is 17.8 µM (inactive) in the assay on OVCAR-3; 29 µM (inactive) in the assay with OVCAR-5; 3.8 µM (inactive) with RPMI-8226; 6 µM (inactive) with SF-539; 25 µM (inactive) in the assay with SK-MEL-28; 23.4 µM (inactive) in the assay on SK-MEL-2. Besides, the GI50 with SK-MEL-5 is 11.8 µM (inactive); with TK-10, 26 µM (inactive); in the assay on UACC-257, 27.1 µM (inactive); with UO-31, 7.08 µM (inactive).

As to `CCc1nnc(CC)n1NCCCC(=O)O`, the GI50 with A549, in the assay with CCRF-CEM, in the assay on COLO 205, in the assay on DU-145, in the assay with KM12 and in the assay on NCI/ADR-RES was > 100 µM (inactive) throughout. Also, the GI50 in the assay with OVCAR-3, in the assay on OVCAR-5, in the assay with RPMI-8226, with SF-539, in the assay with SK-MEL-28 and in the assay on SK-MEL-2 was > 100 µM (inactive) in each case. Also, the GI50 in the assay with SK-MEL-5, with TK-10, with UACC-257 and with UO-31 was > 100 µM (inactive) each time.

`COc1cc2cnc3c4cc(OCc5ccccc5)ccc4ccc3c2cc1OC`: the GI50 in the assay with A549 was 25.5 µM (inactive); in the assay with CAKI-1 it was 26.7 µM (inactive); with CCRF-CEM it was 2.81 µM (inactive); with COLO 205, 18.5 µM (inactive); in the assay on KM12, 29.8 µM (inactive); with NCI-H460, 19 µM (inactive). Besides, the GI50 was 40.6 µM (inactive) with OVCAR-3; > 100 µM (inactive) in the assay with OVCAR-5; 2.96 µM (inactive) in the assay with RPMI-8226; 34 µM (inactive) in the assay with SF-539; 38.3 µM (inactive) in the assay on SK-MEL-28; 18.8 µM (inactive) with SK-MEL-2. Also, the GI50 is 17.4 µM (inactive) with SK-MEL-5, 16.1 µM (inactive) in the assay on TK-10, 26.7 µM (inactive) with UACC-257 and 27.2 µM (inactive) in the assay with UO-31.

Turning to `CC(=O)N1C/C(=C\c2ccccc2)C(=O)/C(=C/c2ccccc2)C1`, the GI50 is 23.1 µM (inactive) in the assay with A549; 17.6 µM (inactive) in the assay on CAKI-1; 2.82 µM (inactive) in the assay with CCRF-CEM; 17.6 µM (inactive) with COLO 205; 3.65 µM (inactive) in the assay on KM12; 17.4 µM (inactive) with NCI-H460. Besides, the GI50 is 6.43 µM (inactive) with OVCAR-3; 19.4 µM (inactive) in the assay with OVCAR-5; 0.415 µM (active) with RPMI-8226; 19.3 µM (inactive) in the assay with SF-539; 13.2 µM (inactive) with SK-MEL-28; 24.9 µM (inactive) in the assay on SK-MEL-2. The GI50 with SK-MEL-5 is 6.19 µM (inactive); in the assay with TK-10, 18.2 µM (inactive); in the assay on UACC-257, 6.9 µM (inactive); in the assay with UO-31, 19.7 µM (inactive).

`NC(=O)c1cn(C2OC(CO)C(O)C2O)c(=O)[nH]c1=O` (centres undefined): the GI50 in the assay on A549, in the assay with CAKI-1, with CCRF-CEM, in the assay with COLO 205, in the assay with KM12 and with NCI-H460 was > 100 µM (inactive) each time. In addition, the GI50 with OVCAR-3, in the assay on OVCAR-5, in the assay on RPMI-8226, with SF-539, with SK-MEL-28 and with SK-MEL-2 was > 100 µM (inactive) each time. Besides, the GI50 with SK-MEL-5, in the assay on TK-10, in the assay on UACC-257 and with UO-31 was > 100 µM (inactive) in each case.

As for `O=C1O/C(=C(/Cl)c2cccc3ccccc23)c2ccccc21`, the GI50 in the assay on A549 is > 100 µM (inactive); with CAKI-1 it was > 100 µM (inactive); in the assay on CCRF-CEM, > 10 µM (inactive); in the assay on COLO 205 it was > 100 µM (inactive); with DU-145 it was > 100 µM (inactive); in the assay with Hs-578T it was 32.4 µM (inactive). For the same compound, the GI50 with KM12 is 7.62 µM (inactive); with NCI-H460, > 100 µM (inactive); with OVCAR-3, > 100 µM (inactive); in the assay with OVCAR-5 it was > 100 µM (inactive); with RPMI-8226 it was > 100 µM (inactive); with SF-539 it was > 100 µM (inactive). The GI50 with SK-MEL-28, in the assay with SK-MEL-5, in the assay on TK-10, in the assay with UACC-257 and with UO-31 was > 100 µM (inactive) each time.

For `CC/C=C\C/C=C\C/C=C\CCCCCCCC(=O)OCC(O)CO` (centres undefined), the GI50 is > 84.9 µM (inactive) in the assay with A549; 38 µM (inactive) in the assay on CAKI-1; > 47.8 µM (inactive) in the assay on CCRF-CEM; 70.5 µM (inactive) in the assay on COLO 205; > 56.9 µM (inactive) with KM12; > 69.3 µM (inactive) with NCI-H460. Moreover, the GI50 in the assay with OVCAR-3 was 40.9 µM (inactive); in the assay on OVCAR-5, > 100 µM (inactive); in the assay with RPMI-8226, 43.4 µM (inactive); in the assay on SF-539, > 100 µM (inactive); in the assay on SK-MEL-28, > 100 µM (inactive); in the assay with SK-MEL-2, 97.9 µM (inactive). Moreover, the GI50 in the assay on SK-MEL-5 is > 59.2 µM (inactive); in the assay with TK-10, > 100 µM (inactive); with UACC-257 it was > 86.1 µM (inactive); in the assay with UO-31, 16.4 µM (inactive).
